# Laboratory results reported in US20130150363A1, “Method of Treating Cancer Using a cMET and AXL Inhibitor and an ErbB Inhibitor” (GlaxoSmithKline, priority 2008, published 2013).
# Legend:
# Assay type in all cases: cell-based
# [1] = system: NCI-H1573 lung carcinoma cells; experiment: Cell growth inhibition (CellTiter-Glo), NCI-H1573; settings: Homo sapiens, NCI-H1573, 72 h, 3 days
# Description: (§1) Esophageal carcinoma cell line OE33 was purchased from ECACC European Collection of Cell Cultures (UK). Breast cancer cell line JIMT-1 and gastric carcinoma cell line MKN-45 were purchased from Deutsche Sammlung von Mikroorganismen and Zellkulturen GmbH (Germany); KPL-4, a human breast cancer cell line was kindly provided by Prof. J Kurebayashi (Kawasaki Medical School, Kurashiki, Japan). […] The LICR-LON-HN5 head and neck carcinoma cell line (HN5) was a gift from the Institute of Cancer Research, Surrey, U.K. HN5C12 was developed by single-cell cloning of HN5 followed by exposure to increasing concentrations of lapatinib. […] Cell growth inhibition was determined via CellTiter-Glo cell viability assays. […] BT474-J4 and HN5C12 were washed with PBS and plated in their culture media without lapatinib. […] ATP levels were determined by adding Cell Titer Glo0 (Promega), incubating for 20 minutes then the luminescent signal was read on the SpectraMax M5 plate with a 0.5 second integration time. Cell growth was calculated relative to vehicle (DMSO) treated control wells. […] Excess Over Highest Single Agent (EOHSA) is defined as a statistically significant improvement in the combination compared to the component monotherapies. […] Analysis was conducted using two-factor analysis of variance with interaction (model terms were dose of drug A, dose of drug B, and interaction between doses of drug A and B), followed by linear contrasts between each combination group and corresponding monotherapies. Analysis was conducted using SAS (version 9, provided by SAS Institute, Cary, N.C.). EOHSA at each dose was calculated as the minimum difference in average % inhibition between the combination and each monotherapy, from the appropriate ANOVA contrast. Since there are many comparisons for the % inhibition endpoint, p-value adjustment for multiple comparisons was performed. Hommel's procedure was implemented in order to improve the power while retaining […] Error Rate (FWE) control by using a sequentially rejective method. The p-values for both synergy and antagonism were calculated using this adjustment.
# [2] = system: Detroit 562 head and neck squamous cell carcinoma cells; experiment: Cell growth inhibition (CellTiter-Glo), Detroit 562; settings: Homo sapiens, Detroit 562, 72 h, 3 days
# Description: (§2) Esophageal carcinoma cell line OE33 was purchased from ECACC European Collection of Cell Cultures (UK). Breast cancer cell line JIMT-1 and gastric carcinoma cell line MKN-45 were purchased from Deutsche Sammlung von Mikroorganismen and Zellkulturen GmbH (Germany); KPL-4, a human breast cancer cell line was kindly provided by Prof. J Kurebayashi (Kawasaki Medical School, Kurashiki, Japan). […] The LICR-LON-HN5 head and neck carcinoma cell line (HN5) was a gift from the Institute of Cancer Research, Surrey, U.K. HN5C12 was developed by single-cell cloning of HN5 followed by exposure to increasing concentrations of lapatinib. […] Cell growth inhibition was determined via CellTiter-Glo cell viability assays. […] BT474-J4 and HN5C12 were washed with PBS and plated in their culture media without lapatinib. […] ATP levels were determined by adding Cell Titer Glo0 (Promega), incubating for 20 minutes then the luminescent signal was read on the SpectraMax M5 plate with a 0.5 second integration time. Cell growth was calculated relative to vehicle (DMSO) treated control wells. […] y=([…]) where A is the minimum response (ymin), B is the maximum response (ymax), c is the inflection point of the curve (EC50), d is the Hill coefficient, and x is the log10 compound concentration (moles/L). CI values were calculated with the interpolated IC50 values and the mutually non-exclusive equation derived by Chou and […](a)+Db/IC50(b)+(Da×Db)/(IC50(a)×IC50(b)) where IC50(a) is the IC50 of the inhibitor A; IC50(b) is the IC50 for the inhibitor B; […] Excess Over Highest Single Agent (EOHSA) is defined as a statistically significant improvement in the combination compared to the component monotherapies. […] See Borisy et al. (2003) or Hung et al. (1993) for examples and discussion. Analysis was conducted using two-factor analysis of variance with interaction (model terms were dose of drug A, dose of drug B, and interaction between doses of drug A and B), followed by linear contrasts between each combination group and corresponding monotherapies. Analysis was conducted using SAS (version 9, provided by SAS Institute, Cary, N.C.). EOHSA at each dose was calculated as the minimum difference in average % inhibition between the combination and each monotherapy, from the appropriate ANOVA contrast. Since there are many comparisons for the % inhibition endpoint, p-value adjustment for multiple comparisons was performed. Hommel's procedure was implemented in order to improve the power while retaining […] Error Rate (FWE) control by using a sequentially rejective method. The p-values for both synergy and antagonism were calculated using this adjustment.
# [3] = system: SCC12 head and neck squamous cell carcinoma cells; experiment: Cell growth inhibition (CellTiter-Glo), SCC12; settings: Homo sapiens, SCC12, 72 h, 3 days
# Description: as §2
# [4] = system: A431 epidermal carcinoma cells; experiment: Cell growth inhibition (CellTiter-Glo), A431; settings: Homo sapiens, A-431, 72 h, 3 days
# Description: as §2
# [5] = system: NCI-H1993 lung carcinoma cells; experiment: Cell growth inhibition (CellTiter-Glo), NCI-H1993; settings: Homo sapiens, NCI-H1993, 72 h, 3 days
# Description: as §2
# [6] = system: NCI-H1648 lung carcinoma cells; experiment: Cell growth inhibition (CellTiter-Glo), NCI-H1648; settings: Homo sapiens, NCI-H1648, 72 h, 3 days
# Description: as §1
# [7] = system: NCI-H69 lung carcinoma cells; experiment: Cell growth inhibition (CellTiter-Glo), NCI-H69; settings: Homo sapiens, NCI-H69, 72 h, 3 days
# Description: as §2
# [8] = system: NCI-H596 lung carcinoma cells; experiment: Cell growth inhibition (CellTiter-Glo), NCI-H596; settings: Homo sapiens, NCI-H596, 72 h, 3 days
# Description: as §2
# [9] = system: NCI-H2170 lung carcinoma cells; experiment: Cell growth inhibition (CellTiter-Glo), NCI-H2170; settings: Homo sapiens, NCI-H2170, 72 h, 3 days
# Description: as §2
# [10] = system: HN5C12 (HN5C2) lapatinib resistant head and neck carcinoma cells; experiment: Cell growth inhibition (CellTiter-Glo), HN5C12; settings: Homo sapiens, 72 h, 3 days
# Description: as §2
smiles,measurement,setting,value
"C#Cc1cccc(Nc2ncnc3cc(OCCOC)c(OCCOC)cc23)c1 [Erlotinib, N-(3-ethynylphenyl)-6,7-bis{[2-(methyloxy)ethyl]oxy}-4-quinazolinamine]",IC50,"[1]; lung_H1573, +HGF (2 ng/mL)",> 10 µM
same,IC50,"[1]; lung_H1573, −HGF",> 10 µM
same,IC50,"[2]; hn_Detroit562, +HGF (2 ng/mL)",> 10 µM
same,IC50,"[2]; hn_Detroit562, −HGF",> 10 µM
same,IC50,"[3]; hn_SCC12, +HGF (2 ng/mL)",> 10 µM
same,IC50,"[3]; hn_SCC12, −HGF",> 10 µM
same,IC50,"[4]; skin_A431, +HGF (2 ng/mL)",> 10 µM
same,IC50,"[4]; skin_A431, −HGF",3.22 µM
same,IC50,"[5]; lung_H1993, +HGF (2 ng/mL)",> 10 µM
same,IC50,"[5]; lung_H1993, −HGF",8.13 µM
same,IC50,"[6]; lung_H1648, +HGF (2 ng/mL)",> 10 µM
same,IC50,"[6]; lung_H1648, −HGF",> 10 µM
same,IC50,"[7]; lung_H69, +HGF (2 ng/mL)",> 10 µM
same,IC50,"[7]; lung_H69, −HGF",> 10 µM
same,IC50,"[8]; lung_H596, +HGF (2 ng/mL)",> 10 µM
same,IC50,"[8]; lung_H596, −HGF",> 10 µM
same,IC50,"[9]; lung_H2170, +HGF (2 ng/mL)",7.74 µM
same,IC50,"[9]; lung_H2170, −HGF",1.28 µM
same,IC50,"[10]; hn_HN5C2, +HGF (2 ng/mL)",> 10 µM
same,IC50,"[10]; hn_HN5C2, −HGF",> 10 µM
"CS(=O)(=O)CCNCc1ccc(-c2ccc3ncnc(Nc4ccc(OCc5cccc(F)c5)c(Cl)c4)c3c2)o1 [Lapatinib, N-(3-chloro-4-{[(3-fluorophenyl)methyl]oxy}phenyl)-6-[5-({[2-(methylsulfonyl)ethyl]amino}methyl)-2-furanyl]-4-quinazolinamine]",IC50,"[1]; lung_H1573, +HGF (2 ng/mL)",> 10 µM
same,IC50,"[1]; lung_H1573, −HGF",9.83 µM
same,IC50,"[2]; hn_Detroit562, +HGF (2 ng/mL)",4.64 µM
same,IC50,"[2]; hn_Detroit562, −HGF",4.02 µM
same,IC50,"[3]; hn_SCC12, +HGF (2 ng/mL)",> 10 µM
same,IC50,"[3]; hn_SCC12, −HGF",> 10 µM
same,IC50,"[4]; skin_A431, +HGF (2 ng/mL)",4.6 µM
same,IC50,"[4]; skin_A431, −HGF",2.19 µM
same,IC50,"[5]; lung_H1993, +HGF (2 ng/mL)",> 10 µM
same,IC50,"[5]; lung_H1993, −HGF",> 10 µM
same,IC50,"[6]; lung_H1648, +HGF (2 ng/mL)",> 10 µM
same,IC50,"[6]; lung_H1648, −HGF",7.39 µM
same,IC50,"[7]; lung_H69, +HGF (2 ng/mL)",4.74 µM
same,IC50,"[7]; lung_H69, −HGF",5.36 µM
same,IC50,"[8]; lung_H596, +HGF (2 ng/mL)",> 10 µM
same,IC50,"[8]; lung_H596, −HGF",> 10 µM
same,IC50,"[9]; lung_H2170, +HGF (2 ng/mL)",4.24 µM
same,IC50,"[9]; lung_H2170, −HGF",0.26 µM
same,IC50,"[10]; hn_HN5C2, +HGF (2 ng/mL)",3.85 µM
same,IC50,"[10]; hn_HN5C2, −HGF",4.12 µM
